# Where a chain is given by its changes, count along the chain named.
# What was measured:
# TGFβ = test: Luciferase reporter gene assay for TGFβ activity (HEK293T SBE-Luc SMAD2/3 reporter, TGFβ agonist); assay type: cell-based; conditions: Homo sapiens, HEK-293T, TGFβ 5 ng/mL
# Outline: (§1)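 TGFβ activity was measured in HEK293T SBE-Luc cells stimulated with 5 ng/mL TGFβ, at compound 10000-30 nM final. ALK2 activity was measured in C2C12 BRE-Luc cells stimulated with 50 ng/mL BMP6, at compound 1000-0.3 nM final. Compound was preincubated 45 min in 2% FBS medium; after ≥18 h agonist exposure, luminescence was read and inhibition expressed as % signal loss versus background-subtracted agonist controls.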
# ALK2 [1] = molecular target: T1, ALK2 (Mus musculus, UniProt P37172); test: Luciferase reporter gene assay for ALK2 activity (C2C12 BRE-Luc SMAD1/5/8 reporter, BMP6 agonist); assay type: cell-based; conditions: BMP6 50 ng/mL
# T1 construct: endogenous in cells; host or cells: C2C12-BRE (BRE-Luc reporter line, G418 selection)
# T1 sequence (P37172 21-509): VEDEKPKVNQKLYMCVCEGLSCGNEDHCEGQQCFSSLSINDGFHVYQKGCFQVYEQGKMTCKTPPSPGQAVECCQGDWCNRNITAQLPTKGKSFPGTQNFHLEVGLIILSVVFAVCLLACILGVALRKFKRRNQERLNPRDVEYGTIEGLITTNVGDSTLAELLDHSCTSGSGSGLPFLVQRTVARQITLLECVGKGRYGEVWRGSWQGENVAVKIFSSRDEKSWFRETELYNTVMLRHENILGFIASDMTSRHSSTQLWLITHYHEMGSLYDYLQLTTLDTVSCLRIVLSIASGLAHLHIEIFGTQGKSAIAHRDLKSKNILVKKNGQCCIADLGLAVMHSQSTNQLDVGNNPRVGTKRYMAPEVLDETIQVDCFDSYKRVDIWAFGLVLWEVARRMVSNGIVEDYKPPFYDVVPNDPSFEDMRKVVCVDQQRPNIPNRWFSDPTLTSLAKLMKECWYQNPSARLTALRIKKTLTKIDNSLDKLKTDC
# Outline: as §1
# ALK2 [2] = molecular target: T2, ALK2 (Homo sapiens, UniProt Q04771); test: TR-FRET enzymatic assay, ALK2 kinase, 1536-well; assay type: biochemical; conditions: for IC50 / ALK2 Span: TR-FRET; for IC50: 10 nM ALK, Ulight topo II substrate 50 nM, ATP 10 uM (Table 1); for ALK2 Span: span of the concentration-response curve
# T2 construct: purchased Life technology (Fredrick, Md.) and/or CARNA BIOSCIENCES Inc. (Kobe, Japan)
# T2 sequence (Q04771 21-509): T1 sequence (P37172 21-509) with V1M, Q10P, I121L, E162D, S310P
# Text: We have developed six ALK kinase enzyme assays for determination of compound activities on ALK1, ALK2, ALK3, ALK4, ALK5 and ALK6. For the assay development, we had tested a number of substrates and assay conditions that led to the final optimized assay protocols with good assay windows with signal to basal (S/B) ratios above 20 fold for all six ALK assays (FIG. 1). In our knowledge, these ALK kinase assays have not been reported elsewhere.
# ALK1 and ALK2-ALK6 were obtained from Life technology (Fredrick, Md.) and CARNA BIOSCIENCES Inc. (Kobe, Japan). Ulight-DNA Topoisomerase 2 alpha (Thr-1342) peptide and Europium anti-phospho-DNA Topoisomerase 2 alpha (Thr-1342) antibody was from Perkin Elmer Inc. The kinase buffer was composed of 50 mM HEPES pH7.0, 10 mM MgCl2, 3 mM MnCl2, 0.005% Tween-20 and 2 mM DTT. The compound plates and the white solid MB assay plates were purchased from Greiner Bio-one (Monroe, N.C.).
# The binding of Eu-anti-phospho-peptide antibody to the phosphorylated Ulight peptide substrate bring both Eu donor and Ulight acceptor dye into close proximity. Upon excitation at 320-340 nm, the emission energy from Eu donor is transferred to Ulight acceptor dye that will generate light at 665 nm. The intensity light emission is proportional to the level of the peptide phosphorylation by ALKs. The assay was optimized and performed in 1536 plate (Table 1). Briefly, the ALKs enzymatic assay was initiated by dispense 2.5 ul enzyme with a final concentration at 10 nM prepared in 1× kinase reaction buffer. The assay plate was then added with compounds with the Pintool station (23 nl/well compound dilutions in DMSO solution) that was followed by incubation at room temperature for 10 minutes. Then 2.5 ul/well substrate was added in which 50 nM peptide substrate mixed with 10 uM, 100 uM or 1 mM ATP (final concentration). The assay plate was incubated at room temperature for 60 minutes and the kinase reaction was stopped by addition of 5 ul/well of 4 nM Eu-anti-phospho-peptide antibody with 12 mM EDTA prepared in 1× detection buffer. The assay plate was measured in an EnVision plate reader (Perkin Elmer) in the TR-FRET detection mode (excitation at 340 nm and emission at 665 nm).
Structure (SMILES),IC50 (TGFβ) [µM],IC50 (ALK2 [1]) [µM],IC50 (ALK2 [2]) [nM],ALK2 Span (ALK2 [2]),"activity in ALK2 in the presence of 10, 100, or 1,000 uM ATP (ALK2 [2]; FIG. 3, ATP 10 uM versus 100 uM or 1 mM)"
Cc1cc(-c2cnn3cc(N4CCC(N5CCN(C)CC5)CC4)cnc23)c2ccccc2n1 [Compound 8],0.022,0.005,54.3,109.4,–
c1ccc2c(-c3cnn4cc(-c5ccc(N6CCNCC6)cc5)cnc34)ccnc2c1 [TRND00262637-13],–,–,–,–,activity reduced in the higher ATP concentrations
Cc1cc(-c2cnn3cc(N4CCC(N5CCOCC5)CC4)cnc23)c2ccccc2n1 [Compound 11],0.055,0.054,111,~117.5,–

# Continued, in another order:
IC50 (TGFβ) [µM],IC50 (ALK2 [1]) [µM],IC50 (ALK2 [2]) [nM],ALK2 Span (ALK2 [2]),Structure (SMILES),"activity in ALK2 in the presence of 10, 100, or 1,000 uM ATP (ALK2 [2]; FIG. 3, ATP 10 uM versus 100 uM or 1 mM)"
0.027,0.037,178,~117.8,Cc1cc(-c2cnn3cc(N4CCC(N5CCNCC5)CC4)cnc23)c2ccccc2n1 [Compound 34],–
0.284,0.019,102,~117.8,"COc1cc2c(-c3cnn4cc(N5CCC(N6CCN(C)CC6)CC5)cnc34)ccnc2cc1F [Compound 15, 7-fluoro-6-methoxy-4-(6-(4-(4-methylpiperazin-1-yl)piperidin-1-yl)pyrazolo[1,5-a]pyrimidin-3-yl)quinoline]",–
